Test results: patent US20260069728A1, “MULTI-TARGETING COMPOUND AND USE THEREOF” (Chengdu Shetai Medical Technology Co., Ltd., priority 2023, published 2026)
Like-named read-outs stand apart in the source and are kept apart here.

Tests used:
[1] = Isoelectric point (PI) measurement; assay type: physicochemical
[2] = tested on: SUM149PT human breast cancer cell line; assay: Cell saturation binding assay, SUM149PT; details: 68Ga-labeled compound
Protocol: (§1) (1) For the cell saturation binding assay, a total of 8 radiolabeled ligand concentrations were set at intervals within the anticipated range. For each concentration, there were 3 groups: the non-inhibition group, the first single inhibition group (FAP single inhibition group), and the second single inhibition group (CXCR4/GRPR/αvβ3 single inhibition group). For each concentration and each group, 3 replicate wells were established.
(§2) (2) Cells were plated into a 24-well plate according to the cell plating procedure described above.
(§3) (3) The original culture medium was removed from the 24-well plate. Then, 400 μL of 100 mg/mL skimmed milk solution was added to each well for blocking for one hour. After removing the skimmed milk solution, each of wells was washed three times by adding 400 μL of PBS solution. Subsequently, 146 μL of FBS-free medium was added to each well. Next, the non-inhibition group received 4 μL of cold PBS per well, while the first single inhibition group and the second single inhibition group received the following additions per well according to Table 4: 2 μL of non-radiolabeled first single inhibitor solution and 2 μL of cold PBS; 2 μL of non-radiolabeled second single inhibitor solution and 2 μL of cold PBS. The plate was then incubated at room temperature for one hour.
(§4) (4) The ligands were radiolabeled with 68Ga using the labeling method described previously. Different volumes of FBS-free medium were added to formulate the radioligand systems at corresponding concentrations. Then, 50 μL of the corresponding concentration of the radioligand system was added to each well.
(§5) (5) The supernatant was removed, and the wells were washed three times with 400 μL of PBS. 200 μL of IM NaOH solution was added to each well for cell lysis. […] Each well was washed once with 400 μL of PBS solution, and the washings were sequentially added to the corresponding radioimmunoassay tubes.
(§6) (6) Radioactivity in the cells was measured using a γ counter. The equilibrium dissociation constant (KD) was obtained by fitting the curve using nonlinear regression analysis in GraphPad Prism software. KD is the drug concentration that causes half of the maximum effect (50% receptor occupancy).

[3] = tested on: SUM149PT human breast cancer cell line; assay: Cell uptake and inhibition assay, SUM149PT; assay type: cell-based; details: for cell uptake, comparison of non-inhibition, FAP single, CXCR4 single and dual inhibition groups (in words): FAPI-04 and T140 as inhibitors; for cell uptake over incubation time (in words): non-inhibition group, 15-120 minutes
Protocol: (§7) The cell lines involved in the cell experiments in the test examples include: SUM149PT human breast cancer cell line, HUTU-80 human duodenal adenocarcinoma cell line, and U-118 MG human brain astrocytoma/glioblastoma cell line.
(§8) SUM149PT: Complete medium was formulated using DMEM high-glucose medium, 10% FBS, and a penicillin-streptomycin solution. The cells were cultured in a constant temperature incubator at 37° C. with 5% CO2. The culture medium was regularly replaced, and the cells were passaged. The culture medium was generally changed every 2 to 3 days. The growth of the tumor cells was observed daily under a microscope, including monitoring cell growth status, checking for adherence, examining cell morphology for any abnormalities, checking for contamination, and observing medium color for any abnormalities. Cells were passaged when they reached 80-90% confluence.
(§9) When cell confluence in the culture flask reached 80%, the cells were digested and centrifuged, and the supernatant was removed. An appropriate amount of medium was added to dilute so that each well contained 500 μL of medium for plating. After thorough mixing by pipetting, the cell suspension was seeded into a 24-well plate at a density of 5×10^5 cells per well. The plate was then placed into the incubator for continued growth. The cells were ready for cellular experiments when they reached 80% confluence.
(§10) (1) The cell uptake assay established four incubation time points: 15, 30, 60, and 120 minutes, respectively. For each time point, four groups were set up: non-inhibition group, a first single inhibition group (FAP single inhibition), a second single inhibition group (CXCR4/GRPR/αvβ3 single inhibition), and a dual inhibition group (FAP inhibitor+CXCR4/GRPR/αvβ3 inhibitor). Each group at each time point was set up with 3 triplicate wells.
as §2
(§11) (3) The original culture medium was removed from the 24-well plate. Then, 400 μL of 100 mg/mL skimmed milk solution was added to each well for blocking for one hour. After removing the skimmed milk solution, each of the wells was washed three times by adding 400 μL of PBS solution. Subsequently, 146 μL of FBS-free medium was added to each well. Next, the non-inhibition group received 4 μL of cold PBS per well, while the first single inhibition group, the second single inhibition group, and the dual inhibition group received the following additions per well according to Table 3: 2 μL of non-radiolabeled first single inhibitor solution and 2 μL of cold PBS: 2 μL of non-radiolabeled second single inhibitor solution and 2 μL of cold PBS; 2 μL of non-radiolabeled first single inhibitor solution (10 mM) and 2 μL of non-radiolabeled second single inhibitor solution (10 mM). The plate was incubated at room temperature for one hour.
(§12) (4) The ^68Ga- and ^177Lu-labeled radioactive ligands were formulated by adding FBS-free medium to achieve a radioligand system concentration of 20 nM. Then, 50 μL of this radioligand system was added to each well. Each group was incubated according to the designated time points: 15, 30, 60, and 120 minutes.
(5) After the incubation was complete, the supernatant was removed, and the wells were washed three times with 400 μL of PBS solution. Then, 200 μL of 1 M NaOH solution was added to each well for cell lysis. […] Each well was then washed once with 400 μL of PBS solution, and this wash solution was also added to the corresponding radioimmunoassay tubes.
(6) The radioactivity in the cells was measured using a γ counter. A bar graph was plotted using GraphPad Prism software. The inhibition rate for each inhibition group was calculated as follows: Inhibition Rate (%)=(1−[Radioactive Count of the Inhibition Group]/[Radioactive Count of the Non-inhibition Group])×100%. […]

[4] = tested on: U-118 MG human brain astrocytoma/glioblastoma cell line; assay: Cell uptake and inhibition assay, U-118 MG; assay type: cell-based; details: for cell uptake over incubation time (in words): all groups, 15-120 minutes; for cell uptake, comparison of non-inhibition, FAP single, integrin αvβ3 single and dual inhibition groups (in words): at 30 minutes, FAPI-04 and RGD as inhibitors
Protocol: as §7
as §8, with “U-118 MG:” for “SUM149PT:”
as §9, §10, §2, §11, §12
(5) After the incubation was complete, the supernatant was removed, and the wells were washed three times with 400 μL of PBS solution. Then, 200 μL of 1 M NaOH solution was added to each well for cell lysis. […]
(6) The radioactivity in the cells was measured using a γ counter. […]

[5] = tested on: U-118 MG human brain astrocytoma/glioblastoma cell line; assay: Cell saturation binding assay, U-118 MG; details: 68Ga-labeled compound
Protocol: as §1, §2, §3, §4, §5, §6

[6] = FAPI-04 solution, read-out: KD value, First single inhibition group (FAP single inhibition)
[7] = T140 solution (CXCR4 inhibitor), read-out: KD value, Second single inhibition group (CXCR4/GRPR/αvβ3 single inhibition)
[8] = read-out: KD value, Non-inhibition group
[9] = conclusion from inhibition groups
[10] = RGD solution (integrin αvβ3 inhibitor), read-out: KD value, Second single inhibition group (CXCR4/GRPR/αvβ3 single inhibition)

Compound	Main peak's PI ([1]; unlabeled compound)	KD values / binding affinity to the receptors (in words) [2]	Kd [2, 6] [nM]	Kd [2, 7] [nM]	Kd [2, 8] [nM]	PI range of series of peaks ([1]; unlabeled compound)	cell uptake, comparison of non-inhibition, FAP single, CXCR4 single and dual inhibition groups (in words) [3]	specific binding to CXCR4 protein (in words) [3, 9]	specific binding to fibroblast activation protein (in words) [3, 9]	cell uptake over incubation time (in words) [3]	cell uptake over incubation time (in words) [4]	cell uptake, comparison of non-inhibition, FAP single, integrin αvβ3 single and dual inhibition groups (in words) [4]	KD values / binding affinity to the receptors (in words) [5]	Kd [5, 6] [nM]	Kd [5, 10] [nM]	Kd [5, 8] [nM]	specific binding to fibroblast activation protein and integrin αvβ3 (in words) [4, 9]	behaviour of sample prepared in pure water during isoelectric point measurement ([1]; pure water)
CCCCCC(=O)N[C@@H]1CSCc2cc(CSCCNC(=O)[C@@H](CCCCNC(=O)CN3CCN(CC(=O)O)CCN(CC(=O)O)CCN(CC(=O)O)CC3)NC(=O)COCCOCCNC(=O)COCCOCCNC(=O)CCN3C(=O)CC(SCCNC(=O)CCC(=O)N[C@@H](CCCNC(=N)N)C(=O)N[C@@H](CCCNC(=N)N)C(=O)N[C@@H](Cc4ccc5ccccc5c4)C(=O)N[C@@H]4CSSC[C@@H](C(=O)N[C@@H](CCCNC(=N)N)C(N)=O)NC(=O)[C@H](CCCNC(N)=O)NC(=O)[C@H](CCCNC(=N)N)NC(=O)[C@H](Cc5ccc(O)cc5)NC(=O)[C@@H]5CCCN5C(=O)[C@H](CCCCN)NC(=O)[C@H](CCCCN)NC(=O)[C@H](CCCNC(N)=O)NC(=O)[C@H](Cc5ccc(O)cc5)NC4=O)C3=O)cc(c2)CSC[C@@H](C(=O)O)NC(=O)[C@H](Cc2ccccc2)NC(=O)[C@H](CCC(N)=O)NC(=O)C([C@@H](C)O)NC(=O)[C@@H]2CCCN2C(=O)[C@@H]2CCCN2C1=O (stereo partly drawn) [SDYD02]	11.183	relatively low KD values	3.35 ± 0.92	6.3 ± 0.78	7.11 ± 1.17													
CN1C(=O)[C@@H](Cc2ccc(O)cc2)NC(=O)CNC(=O)[C@H](Cc2ccc3ccccc3c2)NC(=O)[C@H](CCCNC(=N)N)NC(=O)[C@H]1CCCNC(=O)c1ccc(CNC(=O)[C@H](CCCCNC(=O)CN2CCN(CC(=O)O)CCN(CC(=O)O)CCN(CC(=O)O)CC2)NC(=O)CCC(=O)NCCOCCOCC(=O)NCCOCCOCC(=O)N2CCN(CCCOc3ccc4nccc(C(=O)NCC(=O)N5CC(F)(F)C[C@H]5C#N)c4c3)CC2)cc1 [SDYD05, DOTA-FAPI-Pentixafor]		relatively low KD values	0.373 ± 0.035	1.99 ± 0.312	0.217 ± 0.018	6.617-7.126	non-inhibition group exhibited the highest cell uptake, followed by the FAP single inhibition group, while the dual inhibition group showed the lowest uptake rate	can rapidly and efficiently bind specifically to the CXCR4 protein	bind specifically to fibroblast activation protein to a certain extent	slowly increased and reached a plateau from 15 to 120 minutes								
N#C[C@@H]1CC(F)(F)CN1C(=O)CNC(=O)c1ccnc2ccc(OCCCN3CCN(C(=O)[C@H](CCCCNC(=O)CCN4C(=O)CC(SCC(=O)NCCOCCOCCOCCOCCC(=O)NCCCC[C@@H]5NC(=O)[C@@H](Cc6ccc(O)cc6)NC(=O)[C@H](CC(=O)O)NC(=O)CNC(=O)[C@H](CCCNC(=N)N)NC5=O)C4=O)NC(=O)CCC(C(=O)O)N4CCN(CC(=O)O)CCN(CC(=O)O)CCN(CC(=O)O)CC4)CC3)cc12 (stereo partly drawn) [SDYD07]	4.809										increased significantly within the first 15 minutes, and then slowly increased	from high to low, were as follows: non-inhibition group, FAP single inhibition group, integrin αvβ3 single inhibition group, and dual inhibition group	relatively low KD values	7.1 ± 1.06	7.62 ± 0.923	10.5 ± 1.87		
CCCCCC(=O)N[C@H]1CSCc2cc(CSCCNC(=O)[C@H](CCCCNC(=O)CCN3C(=O)CC(SCC(=O)NCCOCCOCCOCCOCCC(=O)NCCCC[C@@H]4NC(=O)[C@@H](Cc5ccc(O)cc5)NC(=O)[C@H](CC(=O)O)NC(=O)CNC(=O)[C@H](CCCNC(=N)N)NC4=O)C3=O)NC(=O)CCC(C(=O)O)N3CCN(CC(=O)O)CCN(CC(=O)O)CCN(CC(=O)O)CC3)cc(c2)CSC[C@@H](C(=O)O)NC(=O)[C@H](Cc2ccccc2)NC(=O)[C@H](CCC(N)=O)NC(=O)C([C@@H](C)O)NC(=O)[C@@H]2CCCN2C(=O)[C@@H]2CCCN2C1=O (stereo partly drawn) [SDYD08]	2.916										increased significantly within the first 15 minutes	from high to low, were as follows: non-inhibition group, FAP single inhibition group, integrin αvβ3 single inhibition group, and dual inhibition group	relatively low KD values	7.12 ± 0.558	10.5 ± 1.06	8.43 ± 0.475	can specifically bind to fibroblast activation protein and integrin αvβ3	
CCCCCC(=O)N[C@@H]1CSCc2cc(CSCCNC(=O)COCCOCCNC(=O)COCCOCCNC(=O)CSC3CC(=O)N(CCC(=O)N[C@H](CCCCNC(=O)CN4CCN(CC(=O)O)CCN(CC(=O)O)CCN(CC(=O)O)CC4)C(=O)NCc4ccc(C(=O)NCCC[C@@H]5C(=O)N[C@@H](CCCNC(=N)N)C(=O)N[C@@H](Cc6ccc7ccccc7c6)C(=O)NCC(=O)N[C@H](Cc6ccc(O)cc6)C(=O)N5C)cc4)C3=O)cc(c2)CSC[C@@H](C(=O)O)NC(=O)[C@H](Cc2ccccc2)NC(=O)[C@H](CCC(N)=O)NC(=O)C([C@@H](C)O)NC(=O)[C@@H]2CCCN2C(=O)[C@@H]2CCCN2C1=O (stereo partly drawn) [SDYD06]		relatively low KD values	0.455 ± 0.056	0.173 ± 0.012	1.41 ± 0.213		from high to low, were as follows: non-inhibition group, FAP single inhibition group, CXCR4 single inhibition group, and dual inhibition group			slowly increased and reached a plateau from 15 to 120 minutes								insoluble substance formed
